Results reported in a melting point compilation (Tetko et al.; mined from patent text by program, amines drawn as free bases though some values may be those of a salt).

`COCc1cc(-c2csc(N)n2)on1` showed a melting point of 137 to 138 °C.
Molecule `COCCNC(=O)c1n[nH]cc1NC(=O)c1ccccn1` has a melting point of 166 to 167 °C.
`COc1cc(C)c(S(=O)(=O)N(C)C)cc1[N+](=O)[O-]` showed a melting point of 130 to 132 °C.
Work on `FC(F)(F)c1ccc(-c2cc(Oc3ccc4c(C(F)(F)F)ccnc4c3)ncn2)cc1` yielded a melting point of 129 to 131 °C.
`O=C(Nc1ccc(Br)cc1)OC1CN2CCC1CC2` (stereo not drawn) gave a melting point of 218 to 220 °C.
`Cc1cccc(C2CCCN2S(=O)(=O)c2ccc(F)cc2)c1` (racemic) showed a melting point of 80 °C.
`CCCc1nc2c(N)nc3ccc(-c4cccc(NS(C)(=O)=O)c4)cc3c2s1` gave a melting point of 244 to 246 °C.
Work on `CC(C)Cc1sc2c(c1C(=O)c1ccccc1)CCC2C(=O)O` (stereo not drawn) yielded a melting point of 106 to 108 °C.
Molecule `CC1Oc2c(Cc3ccccc3)cc(C=O)cc2NC1=O` (stereo not drawn) has a melting point of 163 to 166 °C.
Work on `CCOC(=O)CCCCCC(=O)NCc1cccc2c1C(=O)N(C1CCC(=O)NC1=O)C2=O` (stereo not drawn) yielded a melting point of 82 to 84 °C.
With `OC1CSC(Oc2cccc(-c3ccco3)c2)C(O)C1O` (stereo not drawn) the melting point was 138 °C.
Molecule `CC(C)(C)CC(C)(C)c1ccc(OCCOCCO)c(O)c1` has a melting point of 112 to 113 °C.
`CCCC(C)(C)NC(=S)Nc1cc(Cl)cc(Cl)c1` showed a melting point of 115 to 117 °C.
In the case of `OCC1C=CC(n2cnc3c(O)ncnc32)O1` (stereo not drawn), the melting point is reported as greater than 310 °C.
Work on `c1ccc(-c2cn3ccccc3n2)cc1` yielded a melting point of 135 to 137 °C.
`CCOC(=O)C(=CNC1CC1)C(=O)c1cc(F)c(Cl)cc1Cl` showed a melting point of 89 to 90 °C.
Molecule `COc1ccc(S(=O)(=O)C(C)(Cc2ccc(OCCN3CCCCC3)cc2)C(N)=O)cc1` (stereo not drawn) has a melting point of 98 °C.
`COC(=O)c1sc2ccc(CCl)cc2c1C` gave a melting point of 115 to 116 °C.
`COC(=O)C(=CNC1CC1)C(=O)c1cc(F)c(Cl)cc1OC` gave a melting point of 128 to 132 °C.
Work on `CCOC(=O)C1(N)C=CNN1c1cc(Cl)cc(Cl)c1` (stereo not drawn) yielded a melting point of 157 to 158 °C.
Molecule `CS(=O)(=O)Nc1cc2oc(NC=O)cc(=O)c2cc1Oc1ccccc1` has a melting point of 214 to 216 °C.
Molecule `Cn1c2ccccc2c(=O)c2c(Br)cccc21` has a melting point of 219 to 221 °C.
Work on `CCCCc1nc2c(N)nc3ccc(OCc4ccccc4)cc3c2n1C` yielded a melting point of 198 to 199 °C.
In the case of `O[C@@H]1CN(Cc2ccccc2)C[C@@H]1Oc1cccc(Cl)c1` (relative stereo), the melting point is reported as 86 to 87.5 °C.
`Cn1c(-c2ccc(O)c(F)c2)cc2ncccc2c1=O` gave a melting point of 182 to 184 °C.
With `COc1ccc2c(c1)C(O)(c1ccccn1)CC(C)(C)CO2` (stereo not drawn) the melting point was 98 °C.
`CCCCCCCCCOc1ccc2c(c1)C(CCNC(=O)CCC)CC2` (stereo not drawn) showed a melting point of 53 to 55 °C.
Work on `CCOC(=O)c1c(C)c(C(=O)O)c(C)n1C` yielded a melting point of 197 to 198 °C.
In the case of `CN=C(NC)Nc1nc(CSCCNC2=NS(=O)(=O)N=C2NC)cs1`, the melting point is reported as 132 to 137 °C.
`CCOC(=O)C1CCc2ccc3[nH]c(C(F)(F)F)nc3c2O1` (stereo not drawn) gave a melting point of 134 °C.
In the case of `CCCOc1cc2c(cc1/C=C/c1ccc(C(=O)OCC)cc1)C(C)(C)CCC2(C)C`, the melting point is reported as 97 to 100 °C.
For `Cc1ccc2c3c(c(=O)oc2c1)CN(Cc1ccc(Cl)cc1)CC3`, the melting point was 147 to 149 °C.
With `CN1C[C@H](CN2CCC(O)(c3ccc(Cl)cc3)CC2)C=C2c3cccc4[nH]c(Cl)c(c34)C[C@H]21` the melting point was greater than 192 °C.
For `Cc1cccc(C)c1NC(=O)N=C1N(C)CC(=O)N1C`, the melting point was 116 to 118 °C.
In the case of `CCOC(=O)Oc1ccc(OC)c(N)c1`, the melting point is reported as 150 to 151 °C.
For `COC(=O)[C@@H]1C[C@@H](OS(C)(=O)=O)CN1C(=O)OC(C)(C)C`, the melting point was 86 to 87 °C.
`CC1CCN(Cc2ccc(CCC(=O)Nc3ccc(-c4ccc(Cl)cc4)cc3)cc2)CC1` gave a melting point of 150 to 151 °C.
Work on `CCN(CC)CCCNC(=O)Cn1ncc(-c2ccc(C#N)cc2)c1-c1ccccc1` yielded a melting point of 100 to 101 °C.
In the case of `C=CCOc1cc(C)c2ccc(=O)oc2c1`, the melting point is reported as 83 °C.
Work on `CCC(CC)N(OCc1ccccc1)C(=O)Nc1ccccc1` yielded a melting point of 45 to 45.6 °C.
`O=C(O)Cc1cc(Cl)c2c(c1)CCC(c1ccccc1)N2` (stereo not drawn) gave a melting point of 126 to 127 °C.
`CCCn1c(=O)oc2cc(F)c([N+](=O)[O-])cc21` gave a melting point of 148 to 152 °C.
Molecule `Cc1cc(N)ccc1-c1ccccc1CO` has a melting point of 108 to 112 °C.
Work on `O=C(CCl)Nc1cc(C2(Cl)C=C(C(F)(F)F)C=NC2)ccc1O` (stereo not drawn) yielded a melting point of 205 °C.
`CC1=CC(O)C(OC(=O)C=Cc2ccccc2)C(C)(C)CC1=O` (stereo not drawn) showed a melting point of 85.5 to 87 °C.
For `CCCCc1nc(C(=O)CC)c(C#N)[nH]1`, the melting point was 84 to 85 °C.
With `O=C(Nc1cccc(Cl)c1)ONC1C=NC(c2ccccc2Cl)=c2cc(Cl)ccc2=N1` (stereo not drawn) the melting point was 125 to 137 °C.
Work on `CC(N)CSc1c[nH]c2ccccc12` (stereo not drawn) yielded a melting point of 110 to 112 °C.
`CCOC(=O)c1cn(-c2ccc(F)c(OC)c2)c2c(Cl)c(F)c(F)cc2c1=O` gave a melting point of 245 to 246 °C.
In the case of `O=c1[nH]c2ccccc2n1CCCN1CCN(C(c2ccccc2)c2ccccn2)CC1` (stereo not drawn), the melting point is reported as 142 °C.
Molecule `CC(C)(C)OC(=O)NCc1nnc(S)s1` has a melting point of 144 to 146 °C.
For `COc1ccc(-c2cc3ccccc3[nH]2)cc1NCc1cccc([N+](=O)[O-])c1`, the melting point was 160 to 162 °C.
`CCSC1CC(=O)CC(SCC)C1(O)c1ccccc1` (stereo not drawn) showed a melting point of 49 to 50 °C.
